Measured values from patent publication US12123028B2, “Viral inactivation methods for continuous manufacturing of antibodies” (Bayer HealthCare LLC, priority 2018, dated 2024).

Test system: X-MuLV
Test: X-MuLV inactivation by detergent in neutralized mAb protein A eluate, remaining infectivity by TCID50 assay on PG-4 cells
Format: cell-based, Xenotropic Murine Leukemia Virus
Conditions: 16° C.
Description: The pH of various protein A eluates was adjusted to 7.0 with 1M Tris buffer. The pH adjusted eluate was then filtered through a 0.22 um filter. Various volumes of 5% stock solution of Mega-10, Tween 20, or Tween 80 were added to the filtered neutralized protein A eluates. This was done to prepare protein A eluates containing various concentrations of each detergent. X-MuLV was then spiked at a 1:20 ratio to the neutralized protein A eluate containing various concentrations of each detergent that had been pre-incubated at a 16° C. water bath prior to the virus spiking. After a thorough mixing, an aliquot of a sample was removed immediately and quenched with a diluent (McCoy's medium containing 3 μg/mL of polybrene) at 1:12 for Mega-10 or at 1:100 for Tween 20 and Tween 80 to stop the inactivation, and the sample was designated as a time-zero sample. The remaining spiked eluate was returned to the water bath and the samples were collected at the indicated time to evaluate the viral inactivation kinetics.
The remaining X-MuLV infectivity in the samples post-inactivation treatment was determined by a TCID50 assay that is an endpoint dilution assay to quantify the amount of virus required to produce a cytopathic effect in 50% of inoculated tissue culture cells. Virus titers were estimated using the Spearman-Karber method and reported as TCID50/mL with a calculated 95% confidence interval (CI). Briefly, a sufficient number of 96-well plates with PG-4 (feline S^+L^−, ATCC#CRL-2032) cells were prepared the day before starting the viral inactivation experiments and incubated overnight in a 37° C. humidified CO2 incubator. A set of ten 3.2 fold dilution of the diluted positive control (1:100) and viral inactivated samples were prepared in a dilution block. Each set of the 11 serial dilutions of the samples were inoculated correspondingly onto wells (100 μL per well) of the first 11 columns in a 96-well plate that had been pre-seeded with PG-4 cells. The 12th column in the same plate was inoculated with the corresponding diluent to serve as non-virus negative control. The positive control was prepared by spiking the filtered neutralized protein A eluate with X-MuLV at a 1:20 ratio. The inoculated plates were then incubated in a 37° C. humidified CO2 incubator for approximate 2 hours. A volume of 100 uL of 2× assay medium (92% McCoy's 5A medium, 4% FBS, 2% Penicillin/Streptomycin, 2% L-Glutamine) was added to each well of the plates at the end of incubation. The plates were then returned to the same incubator, and continued incubation for 6 days. Each well of the plates were scored under a microscope for the presence of cytopathic effect (CPE) and the results were recorded in a scoring sheet. Virus titers were then estimated using the Spearman-Karber method and reported as TCID50/mL with a calculated 95% confidence interval (CI).
To evaluate robustness of X-MuLV inactivation by Mega-10 in Protein A eluates of mAb1, X-MuLV was spiked at a 1:20 ratio into the neutralized mAb1 protein A eluate contain 0.1%, 0.2% and 0.3% of Mega-10. After a thorough mixing, an aliquot of sample was removed at 0, 2.5, 5, 10, and 30 minutes after incubation at 16° C. The remaining virus titer in the collected samples was determined by the TCID50 assay.

[1] = 0.1% Mega-10, neutralized mAb1 protein A eluate pH 7.01, incubation 0 minutes
[2] = 0.1% Mega-10, neutralized mAb1 protein A eluate pH 7.01, incubation 2.5 minutes
[3] = 0.1% Mega-10, neutralized mAb1 protein A eluate pH 7.01, incubation 5.0 minutes
[4] = 0.1% Mega-10, neutralized mAb1 protein A eluate pH 7.01, incubation 10 minutes
[5] = 0.1% Mega-10, neutralized mAb1 protein A eluate pH 7.01, incubation 30 minutes
[6] = 0.1% Mega-10, neutralized mAb2 protein A eluate pH 7.01, incubation 0 minutes
[7] = 0.1% Mega-10, neutralized mAb2 protein A eluate pH 7.01, incubation 2.5 minutes
[8] = 0.1% Mega-10, neutralized mAb2 protein A eluate pH 7.01, incubation 5.0 minutes
[9] = 0.1% Mega-10, neutralized mAb2 protein A eluate pH 7.01, incubation 10 minutes
[10] = 0.1% Mega-10, neutralized mAb2 protein A eluate pH 7.01, incubation 30 minutes
[11] = 0.2% Mega-10, neutralized mAb1 protein A eluate pH 7.01, incubation 0 minutes
[12] = 0.2% Mega-10, neutralized mAb1 protein A eluate pH 7.01, incubation 5.0 minutes
[13] = 0.2% Mega-10, neutralized mAb1 protein A eluate pH 7.01, incubation 10 minutes
[14] = 0.2% Mega-10, neutralized mAb1 protein A eluate pH 7.01, incubation 30 minutes
[15] = 0.2% Mega-10, neutralized mAb2 protein A eluate pH 7.01, incubation 0 minutes
[16] = 0.2% Mega-10, neutralized mAb2 protein A eluate pH 7.01, incubation 2.5 minutes
[17] = 0.2% Mega-10, neutralized mAb2 protein A eluate pH 7.01, incubation 5.0 minutes
[18] = 0.2% Mega-10, neutralized mAb2 protein A eluate pH 7.01, incubation 10 minutes
[19] = 0.3% Mega-10, neutralized mAb1 protein A eluate pH 7.01, incubation 0 minutes
[20] = 0.3% Mega-10, neutralized mAb1 protein A eluate pH 7.01, incubation 5.0 minutes
[21] = 0.3% Mega-10, neutralized mAb1 protein A eluate pH 7.01, incubation 10 minutes
[22] = 0.3% Mega-10, neutralized mAb1 protein A eluate pH 7.01, incubation 30 minutes
[23] = 0.3% Mega-10, neutralized mAb2 protein A eluate pH 7.01, incubation 0 minutes
[24] = 0.3% Mega-10, neutralized mAb2 protein A eluate pH 7.01, incubation 5.0 minutes
[25] = 0.3% Mega-10, neutralized mAb2 protein A eluate pH 7.01, incubation 10 minutes
[26] = 0.3% Mega-10, neutralized mAb2 protein A eluate pH 7.01, incubation 30 minutes

SMILES: CCCCCCCCCC(=O)N(C)C[C@H](O)[C@@H](O)[C@H](O)[C@H](O)CO [Mega-10, N-Methylglucamide]
- LRF ± 95% CL (0.10% Mega 10 alone, neutralized mAb1 protein A eluate, 0 minutes (Table 2)): 0.33 ± 0.35
- LRF ± 95% CL (0.10% Mega 10 alone, neutralized mAb1 protein A eluate, 2.5 minutes (Table 2)): 0.33±0.29
- LRF ± 95% CL (0.10% Mega 10 alone, neutralized mAb1 protein A eluate, 2.5 minutes (Table 2), listed as Mega 10): 0.33 ± 0.29
- LRF ± 95% CL (0.10% Mega 10 alone, neutralized mAb1 protein A eluate, 5 minutes (Table 2)): 0.33 ± 0.32
- LRF ± 95% CL (0.10% Mega 10 alone, neutralized mAb1 protein A eluate, 10 minutes (Table 2)): 0.39 ± 0.36
- LRF ± 95% CL (0.10% Mega 10 alone, neutralized mAb1 protein A eluate, 30 minutes (Table 2)): 0.64 ± 0.33
- LRF ± 95% CL [1]: 0.26 ± 0.28
- Log10 TCID50/mL [1]: 6.53 ± 0.20 Log10 TCID50/mL
- LRF ± 95% CL [2]: 0.38 ± 0.32
- Log10 TCID50/mL [2]: 6.41 ± 0.26 Log10 TCID50/mL
- LRF ± 95% CL [3]: 0.38 ± 0.28
- Log10 TCID50/mL [3]: 6.41 ± 0.21 Log10 TCID50/mL
- LRF ± 95% CL [4]: 0.38 ± 0.28
- Log10 TCID50/mL [4]: 6.41 ± 0.20 Log10 TCID50/mL
- LRF ± 95% CL [5]: 0.38 ± 0.23
- Log10 TCID50/mL [5]: 6.41 ± 0.12 Log10 TCID50/mL
- LRF ± 95% CL [6]: 0.36 ± 0.28
- Log10 TCID50/mL [6]: 6.56 ± 0.22 Log10 TCID50/mL
- LRF ± 95% CL [7]: 0.36 ± 0.28
- Log10 TCID50/mL [7]: 6.56 ± 0.22 Log10 TCID50/mL
- LRF ± 95% CL [8]: 0.36 ± 0.25
- Log10 TCID50/mL [8]: 6.56 ± 0.18 Log10 TCID50/mL
- LRF ± 95% CL [9]: 0.29 ± 0.26
- Log10 TCID50/mL [9]: 6.63 ± 0.19 Log10 TCID50/mL
- LRF ± 95% CL [10]: 0.36 ± 0.28
- Log10 TCID50/mL [10]: 6.56 ± 0.22 Log10 TCID50/mL
- LRF ± 95% CL (0.15% Mega 10 alone, neutralized mAb2 protein A eluate, 0 minutes (Table 3)): 0.99 ± 0.30
- LRF ± 95% CL (0.15% Mega 10 alone, neutralized mAb2 protein A eluate, 2.5 minutes (Table 3)): 1.62 ± 0.30
- LRF ± 95% CL (0.15% Mega 10 alone, neutralized mAb2 protein A eluate, 5 minutes (Table 3)): 1.68±0.31
- LRF ± 95% CL (0.15% Mega 10 alone, neutralized mAb2 protein A eluate, 5 minutes (Table 3), listed as Mega 10): 1.68 ± 0.31
- LRF ± 95% CL (0.15% Mega 10 alone, neutralized mAb2 protein A eluate, 10 minutes (Table 3)): 1.94 ± 0.32
- LRF ± 95% CL (0.15% Mega 10 alone, neutralized mAb2 protein A eluate, 30 minutes (Table 3)): 1.94 ± 0.32
- LRF ± 95% CL [11]: 2.91 ± 0.32
- Log10 TCID50/mL [11]: 3.88 ± 0.25 Log10 TCID50/mL
- Log10 TCID50/mL (0.2% Mega-10, neutralized mAb1 protein A eluate pH 7.01, incubation 2.5 minutes): ≤1.21 Log10 TCID50/mL
- LRF ± 95% CL [12]: ≥5.58 ± 0.19
- Log10 TCID50/mL [12]: ≤1.21 Log10 TCID50/mL
- LRF ± 95% CL [13]: ≥5.58 ± 0.19
- Log10 TCID50/mL [13]: ≤1.21 Log10 TCID50/mL
- LRF ± 95% CL [14]: ≥5.58 ± 0.19
- Log10 TCID50/mL [14]: ≤1.21 Log10 TCID50/mL
- treatment time to inactivate X-MuLV to the level below the detection limit (0.2% Mega-10, neutralized mAb1 protein A eluate): 2.5 min
- LRF ± 95% CL [15]: 4.73 ± 0.46
- Log10 TCID50/mL [15]: 2.19 ± 0.43 Log10 TCID50/mL
- LRF ± 95% CL [16]: 5.31±0.75
- Log10 TCID50/mL [16]: 1.61 ± 0.73 Log10 TCID50/mL
- LRF ± 95% CL [17]: 5.31 ± 0.75
- Log10 TCID50/mL [17]: 1.61 ± 0.73 Log10 TCID50/mL
- LRF ± 95% CL [18]: 5.50 ± 0.90
- Log10 TCID50/mL [18]: 1.42 ± 0.88 Log10 TCID50/mL
- Log10 TCID50/mL (0.2% Mega-10, neutralized mAb2 protein A eluate pH 7.01, incubation 30 minutes): ≤1.11 ± 0.27 Log10 TCID50/mL
- LRF ± 95% CL [19]: 3.79 ± 0.33
- Log10 TCID50/mL [19]: 3.00 ± 0.27 Log10 TCID50/mL
- Log10 TCID50/mL (0.3% Mega-10, neutralized mAb1 protein A eluate pH 7.01, incubation 2.5 minutes): ≤1.21 Log10 TCID50/mL
- LRF ± 95% CL [20]: ≥5.58 ± 0.19
- Log10 TCID50/mL [20]: ≤1.21 Log10 TCID50/mL
- LRF ± 95% CL [21]: ≥5.58 ± 0.19
- Log10 TCID50/mL [21]: ≤1.21 Log10 TCID50/mL
- LRF ± 95% CL [22]: ≥5.58 ± 0.19
- Log10 TCID50/mL [22]: ≤1.21 Log10 TCID50/mL
- treatment time to inactivate X-MuLV to the level below the detection limit (0.3% Mega-10, neutralized mAb1 protein A eluate): 2.5 min
- LRF ± 95% CL [23]: 4.73 ± 0.46
- Log10 TCID50/mL [23]: 2.19 ± 0.43 Log10 TCID50/mL
- Log10 TCID50/mL (0.3% Mega-10, neutralized mAb2 protein A eluate pH 7.01, incubation 2.5 minutes): ≤1.11 Log10 TCID50/mL
- LRF ± 95% CL [24]: ≥5.81 ± 0.18
- Log10 TCID50/mL [24]: ≤1.11 Log10 TCID50/mL
- LRF ± 95% CL [25]: ≥5.81 ± 0.18
- Log10 TCID50/mL [25]: ≤1.11 Log10 TCID50/mL
- LRF ± 95% CL [26]: ≥5.81 ± 0.18
- Log10 TCID50/mL [26]: ≤1.11 Log10 TCID50/mL
- treatment time to inactivate X-MuLV to the level below detection (0.3% Mega-10, neutralized mAb2 protein A eluate): 2.5 min
